Source: ChEMBL document CHEMBL1127639, “Structural features important for sigma 1 receptor binding” (J Med Chem, 1994)
pKi: −log10 of the molar value.

Assay: Binding affinity against [3H]-3-PPP labelled sigma sites

## CN(CCc1ccccc1)CCN1CCCC1
  pKi: 8.13
